Columns and labels:
[1] = system: Gclm; assay: Relative gene expression of Gclm in BMCs (qRT-PCR); format: cell-based, mouse; conditions: 2 μM, 4 h; for Gclm relative expression: 4% and 1% oxygen
Excerpt: (§1) Primary bone marrow cells (BMCs) were isolated from 8–12-week-old male C57BL/6 mice (25–30 g, AnLab, Czech Republic). Mice were housed under standard conditions. BMCs were isolated as follows: The day before isolation, phosphate-buffered saline (PBS), ACK Lysis Buffer (A10492-01, Thermo Fisher Scientific), and Iscove’s Modified Dulbecco’s Medium (IMDM) (12440-053, Thermo Fisher Scientific) were placed in a hypoxic chamber (InvivO2 400, Baker Ruskinn, UK) with adjustable oxygen control to equilibrate for the target oxygen concentrations. On the day of the experiment, animals were euthanized using ketamine/xylazine, and bilateral femurs were extracted. BMCs were flushed with hypoxic (1% O2 unless stated otherwise) PBS supplemented with 2% fetal bovine serum (FBS; low endotoxin, FB-1101/500, Biosera, France). After hemolysis at room temperature using hypoxic ACK Lysis Buffer, nucleated BMCs were washed with hypoxic PBS + 2% FBS and counted using a TC20 automated cell counter (Bio-Rad). Cells were kept under hypoxic conditions prior to treatment. The medium for BMC culture, consisting of IMDM with 2% FBS and 1% penicillin/streptomycin (LM-A4118/100, Biosera, France), was supplemented with 10 ng/mL mouse IL-3, 10 ng/mL mouse IL-6, and 50 ng/mL mouse stem cell factor - SCF (213-13, 216-16, and 250-03, respectively; all from PeproTech). Cells were cultured at 37 °C in a humidified atmosphere containing 5% CO2 and the specified oxygen concentrations (21%, 4%, or 1%).
For the relative gene expression of nuclear factor erythroid 2-related factor 2 (NRF2, encoded by Nfe2l2), heme oxygenase-1 (Hmox1), and Glutamate-Cysteine Ligase Modifier Subunit (Gclm) (Mm00477784_m1, Mm00516005_m1, Mm00514996_m1, all from Thermo Fisher Scientific), mouse BMC (3 × 10^6 cells) were cultivated on a 6-well plate in 1.5 mL of complete media (see Isolation and culture of primary cells), and then incubated with 2 μM NO2FAs or control (medium only) for 4 h at the specified oxygen levels (21%, 4%, or 1%). Then, the adherent and nonadherent cells were washed with PBS and lysed using a NucleoSpin RNA Plus kit (740984, Machery-Nagel; Germany). The concentration and purity of isolated RNA was assessed using an Infinite M200 Pro spectrophotometer (Tecan, Austria). Total RNA (0.2 μg) was reversely transcribed into first strand cDNA using a RevertAid First Strand cDNA Synthesis kit according to the manufacturer’s protocol (K1622, Thermo Fisher Scientific). qRT-PCR reactions were performed in a LightCycler480 instrument (Roche; Switzerland) using TaqMan FastAdvanced Master Mix for qPCR (4444557, Thermo Fisher Scientific) and the following program was used: uracil-N-glycosylase activation step at 50 °C for 2 min, an initial denaturation step at 95 °C for 2 min, followed by 45 cycles (95 °C for 3 s, 60 °C for 30 s), and a final cooling step at 40 °C for 1 min. Data were normalized to ribosomal protein L32 (Rpl32, Mm02528467_g1, Thermo Fisher Scientific) and presented as 2^–Δcq.
3 Expression of NRF2 and its target genes in response to NO2FA derivatives. BMCs were cultured under 4% or 1% oxygen conditions and treated for 4 h with the tested NO 2 FAs (2 μM) or medium followed by quantification of (A) Nfe2l2, (B) Hmox1, and (C) Gclm with PCR. Results are presented as relative expression across different oxygen culture conditions. Dimethyl fumarate (DMF) was added as a control. Data are expressed as mean ± SD from 3 to 7 independent experiments (n = 3–7), analyzed with one-way ANOVA with Dunnett’s multiple comparisons test compared to the controls (*p < 0.05; **p < 0.01; ***p < 0.001).
Relative expression of (A) Hmox1 and (B) Gclm in different oxygen […]
Figure S 2. Relative expression of (A) Hmox1 and (B) Gclm in different oxygen conditions. BMCs were cultured under varying oxygen conditions (21, 4, and 1%) and treated for 4 hours with the tested 10 -NO₂OA (2 µM) or medium followed by quantification […]
with PCR. […]

[2] = system: NRF2; assay: NRF2 stabilization in bone marrow cells (Western blot, whole-cell lysates); format: cell-based, mouse; conditions: BMCs, 2 μM, 1 h
Excerpt: as §1
Briefly, 1.5 × 10^6 BMCs were placed in 0.2 mL of complete medium in 1.5 mL microtubes and incubated with 2 μM NO2FAs or the control (medium only) for 1 (NRF2), 4 (heme oxygenase-1, HO-1), or 7 (glutamate-cysteine ligase modifier subunit, GCLM) hours at the specified oxygen levels (21%, 4%, or 1%). Cells were then spun down and washed with PBS (from this step onward, cells were processed under atmospheric conditions). Next, cells were lysed in 60 μL RIPA buffer (89901, Thermo Fisher Scientific) containing protease and phosphatase inhibitors cocktail (78442, Thermo Fisher Scientific). Cell lysates were sonicated and centrifuged at 15,000g for 3 min at 4 °C, and 15 μL of lane marker (3900, Thermo Fisher Scientific) was added to the supernatants. Samples were boiled for 3 min at 95 °C. Equal volumes of lysates (15–45 μL/well) were loaded onto 7–15% SDS-polyacrylamide gels. Proteins were then transferred onto PVDF membranes (IPVH85R, EMD Millipore Corp.) and blocked with 5% nonfat dry milk in TBST. Membranes were incubated overnight at 4 °C with the following primary antibodies: anti-β-actin (1:1000; #3700, Cell Signaling Technology), antivinculin (1:10,000; #SAV9264, Sigma-Aldrich), anti-NRF2 (1:500; A308758, Lot 38410, Antibodies.com, UK), anti-HO-1 (1:1000; #43966, Cell Signaling Technology), antihistone H3 (1:2000; #4499, Cell Signaling Technology), or anti-GCLM (1:100; sc-55586, Santa Cruz Biotechnology). This was followed by incubation with corresponding HRP-linked secondary antibodies (antimouse IgG, #7076, 1:1000–5000; or antirabbit IgG, #7074, 1:1000–2000; both from Cell Signaling Technology) for 1 h at room temperature. Protein bands were visualized using an enhanced chemiluminescent substrate (SuperSignal 34577/34095, Thermo Fisher Scientific). The optical densities of detected proteins were measured using ImageJ v1.52 (NIH).
2 Stabilization of NRF2 by tested NO2FA derivatives. NO 2 FA derivatives stabilize NRF2 in mouse bone marrow cells (BMCs). Nucleated BMCs were cultured under varying oxygen conditions (21%, 4%, and 1%) and treated for 1 h with 2 μM of the tested NO 2 FAs, followed by analysis of NRF2 expression in whole-cell lysates. Results are shown as the fold change relative to control cells across different oxygen culture conditions (A–C). Data are expressed as mean ± SD from 3–4 independent experiments (n = 3–4). Statistical analysis was performed using one-way ANOVA with Dunnett’s multiple comparisons test (* p < 0.05).

| Compound | Gclm relative expression [1] | NRF2 expression (stabilization), fold change relative to control ([2]; 1% oxygen) | Gclm expression at 1% oxygen compared to 21% ([1]; 1% vs 21% oxygen) | NRF2 expression (stabilization), fold change relative to control ([2]; 4% oxygen) | NRF2 expression (stabilization), fold change relative to control ([2]; 21% oxygen) |
| --- | --- | --- | --- | --- | --- |
| CCCCCCCC/C=C(\CCCCCCCC(=O)O)[N+](=O)[O-] [9-NO2OA, (9E)-9-Nitro-oleic Acid] | significant upregulation | significantly increased |  |  |  |
| CCCCCCCC/C(=C\CCCCCCCC(=O)O)[N+](=O)[O-] [10-NO2OA, (9E)-10-Nitro-oleic Acid] | significant upregulation | significantly increased | not observed |  |  |
| CCCCCCCCC(CCCCCCCCC(=O)O)[N+](=O)[O-] (centres unmarked) [10-NO2SA, 10-Nitro Stearic acid] | no effects | no effect |  | no effect | no effect |
| CCCCCC/C=C/C=C(\CCCCCCCC(=O)O)[N+](=O)[O-] [9-NO2cLA, (9E,11E)-9-Nitro Conjugated Linoleic Acid] | upregulation that was dependent on oxygen levels | nonsignificant increase |  | nonsignificant increase |  |
| CCCCC/C=C\C/C(=C\CCCCCCCC(=O)O)[N+](=O)[O-] [10-NO2LA, (9E,12Z)-10-Nitro Linoleic Acid] | upregulation that was dependent on oxygen levels or specific target genes |  |  | significantly increased |  |

From article PMC12169669, “Regio- and Stereoselective Synthesis of Nitro-fatty Acids as NRF2 Pathway Activators Working under Ambient or Hypoxic Conditions” (Journal of Medicinal Chemistry, 2025)
